From PubChem BioAssay (NCI)
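Exposure lasted 48 hours, with cells grown in 96-well plates and compounds tested at five concentrations. TGI: concentration producing complete growth inhibition.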

Experiments:
Assay in all cases: DTP human tumour cell line panel, 48 h
A498 renal = tested on: A498 renal
SW-620 colon = tested on: SW-620 colon
ACHN renal = tested on: ACHN renal
SK-OV-3 ovarian = tested on: SK-OV-3 ovarian
SNB-19 CNS = tested on: SNB-19 CNS
CAKI-1 renal = tested on: CAKI-1 renal
HL-60(TB) leukemia = tested on: HL-60(TB) leukemia
HCT-116 colon = tested on: HCT-116 colon
K-562 leukemia = tested on: K-562 leukemia
A549 NSCLC = tested on: A549 NSCLC
HS 578T breast = tested on: HS 578T breast
NCI-H226 lung = tested on: NCI-H226 lung
SN12C renal = tested on: SN12C renal
SF-295 CNS = tested on: SF-295 CNS
NCI/ADR-RES ovarian = tested on: NCI/ADR-RES ovarian
NCI-H460 lung = tested on: NCI-H460 lung
UACC-62 melanoma = tested on: UACC-62 melanoma
MDA-MB-435 = tested on: MDA-MB-435
PC-3 prostate = tested on: PC-3 prostate
T-47D breast = tested on: T-47D breast
EKVX NSCLC = tested on: EKVX NSCLC
LOX IMVI melanoma = tested on: LOX IMVI melanoma
MDA-N = tested on: MDA-N
U251 CNS = tested on: U251 CNS
SF-268 CNS = tested on: SF-268 CNS
MOLT-4 leukemia = tested on: MOLT-4 leukemia
OVCAR-5 ovarian = tested on: OVCAR-5 ovarian
NCI-H23 lung = tested on: NCI-H23 lung
SF-539 CNS = tested on: SF-539 CNS
OVCAR-8 ovarian = tested on: OVCAR-8 ovarian
MDA-MB-231 breast = tested on: MDA-MB-231 breast
RPMI-8226 leukemia = tested on: RPMI-8226 leukemia
HCT-15 colon = tested on: HCT-15 colon
SK-MEL-2 melanoma = tested on: SK-MEL-2 melanoma
786-0 renal = tested on: 786-0 renal
OVCAR-3 ovarian = tested on: OVCAR-3 ovarian
NCI-H522 lung = tested on: NCI-H522 lung
CCRF-CEM leukemia = tested on: CCRF-CEM leukemia
BT-549 breast = tested on: BT-549 breast
OVCAR-4 ovarian = tested on: OVCAR-4 ovarian
RXF 393 renal = tested on: RXF 393 renal
IGROV1 ovarian = tested on: IGROV1 ovarian
SR leukemia = tested on: SR leukemia
UACC-257 melanoma = tested on: UACC-257 melanoma
KM12 colon = tested on: KM12 colon
HOP-92 NSCLC = tested on: HOP-92 NSCLC
MCF7 breast = tested on: MCF7 breast
SK-MEL-28 melanoma = tested on: SK-MEL-28 melanoma
HT29 colon = tested on: HT29 colon
SK-MEL-5 melanoma = tested on: SK-MEL-5 melanoma
M14 melanoma = tested on: M14 melanoma
DU-145 prostate = tested on: DU-145 prostate
MALME-3M melanoma = tested on: MALME-3M melanoma
HOP-62 NSCLC = tested on: HOP-62 NSCLC
SNB-75 CNS = tested on: SNB-75 CNS
TK-10 renal = tested on: TK-10 renal
COLO 205 colon = tested on: COLO 205 colon
UO-31 renal = tested on: UO-31 renal
HCC-2998 colon = tested on: HCC-2998 colon

## CN1CCc2c(sc3ncn(N)c(=N)c23)C1
A498 renal
  TGI: > 100 µM
SW-620 colon
  TGI: > 100 µM
ACHN renal
  TGI: > 100 µM
SK-OV-3 ovarian
  TGI: > 100 µM
SNB-19 CNS
  TGI: > 100 µM
CAKI-1 renal
  TGI: > 100 µM
HL-60(TB) leukemia
  TGI: > 100 µM
HCT-116 colon
  TGI: > 100 µM
K-562 leukemia
  TGI: > 100 µM
A549 NSCLC
  TGI: > 100 µM
HS 578T breast
  TGI: > 100 µM
NCI-H226 lung
  TGI: > 100 µM
SN12C renal
  TGI: > 100 µM
SF-295 CNS
  TGI: > 100 µM
NCI/ADR-RES ovarian
  TGI: > 100 µM
NCI-H460 lung
  TGI: > 100 µM
UACC-62 melanoma
  TGI: > 100 µM
MDA-MB-435
  TGI: > 100 µM
PC-3 prostate
  TGI: > 100 µM
T-47D breast
  TGI: > 100 µM
EKVX NSCLC
  TGI: > 100 µM
LOX IMVI melanoma
  TGI: > 100 µM
MDA-N
  TGI: > 100 µM
U251 CNS
  TGI: > 100 µM
SF-268 CNS
  TGI: > 100 µM
MOLT-4 leukemia
  TGI: > 100 µM
OVCAR-5 ovarian
  TGI: > 100 µM
NCI-H23 lung
  TGI: > 100 µM
SF-539 CNS
  TGI: > 100 µM
OVCAR-8 ovarian
  TGI: > 100 µM
MDA-MB-231 breast
  TGI: > 100 µM
RPMI-8226 leukemia
  TGI: > 100 µM
HCT-15 colon
  TGI: > 100 µM
SK-MEL-2 melanoma
  TGI: > 100 µM
786-0 renal
  TGI: > 100 µM
OVCAR-3 ovarian
  TGI: > 100 µM
NCI-H522 lung
  TGI: > 100 µM
CCRF-CEM leukemia
  TGI: > 100 µM
BT-549 breast
  TGI: > 100 µM
OVCAR-4 ovarian
  TGI: > 100 µM
RXF 393 renal
  TGI: > 100 µM
IGROV1 ovarian
  TGI: > 100 µM
SR leukemia
  TGI: > 100 µM
UACC-257 melanoma
  TGI: > 100 µM
KM12 colon
  TGI: > 100 µM
HOP-92 NSCLC
  TGI: > 100 µM
MCF7 breast
  TGI: > 100 µM
SK-MEL-28 melanoma
  TGI: > 100 µM
HT29 colon
  TGI: > 100 µM
SK-MEL-5 melanoma
  TGI: > 100 µM
M14 melanoma
  TGI: > 100 µM
DU-145 prostate
  TGI: > 100 µM
MALME-3M melanoma
  TGI: > 100 µM
HOP-62 NSCLC
  TGI: > 100 µM
SNB-75 CNS
  TGI: > 100 µM
TK-10 renal
  TGI: > 100 µM

## CC(C)c1cc(C(F)(F)F)nc(NNc2nc(C(C)C)cc(C(F)(F)F)n2)n1
A498 renal
  TGI: > 100 µM
SW-620 colon
  TGI: > 100 µM
ACHN renal
  TGI: > 100 µM
SK-OV-3 ovarian
  TGI: > 100 µM
SNB-19 CNS
  TGI: > 100 µM
CAKI-1 renal
  TGI: > 100 µM
HL-60(TB) leukemia
  TGI: > 100 µM
HCT-116 colon
  TGI: > 100 µM
K-562 leukemia
  TGI: > 100 µM
A549 NSCLC
  TGI: > 100 µM
HS 578T breast
  TGI: > 100 µM
NCI-H226 lung
  TGI: > 100 µM
SN12C renal
  TGI: > 100 µM
SF-295 CNS
  TGI: > 100 µM
NCI/ADR-RES ovarian
  TGI: > 100 µM
NCI-H460 lung
  TGI: > 100 µM
UACC-62 melanoma
  TGI: > 100 µM
MDA-MB-435
  TGI: > 100 µM
PC-3 prostate
  TGI: > 100 µM
T-47D breast
  TGI: > 100 µM
EKVX NSCLC
  TGI: > 100 µM
MDA-N
  TGI: > 100 µM
U251 CNS
  TGI: > 100 µM
SF-268 CNS
  TGI: > 100 µM
MOLT-4 leukemia
  TGI: > 100 µM
OVCAR-5 ovarian
  TGI: > 100 µM
NCI-H23 lung
  TGI: > 100 µM
SF-539 CNS
  TGI: > 100 µM
OVCAR-8 ovarian
  TGI: > 100 µM
MDA-MB-231 breast
  TGI: > 100 µM
RPMI-8226 leukemia
  TGI: > 100 µM
HCT-15 colon
  TGI: > 100 µM
SK-MEL-2 melanoma
  TGI: > 100 µM
786-0 renal
  TGI: > 100 µM
OVCAR-3 ovarian
  TGI: 85.5 µM
NCI-H522 lung
  TGI: > 100 µM
CCRF-CEM leukemia
  TGI: > 100 µM
BT-549 breast
  TGI: > 100 µM
OVCAR-4 ovarian
  TGI: > 100 µM
RXF 393 renal
  TGI: > 100 µM
IGROV1 ovarian
  TGI: > 100 µM
SR leukemia
  TGI: > 100 µM
UACC-257 melanoma
  TGI: > 100 µM
COLO 205 colon
  TGI: > 100 µM
KM12 colon
  TGI: > 100 µM
HOP-92 NSCLC
  TGI: > 100 µM
MCF7 breast
  TGI: > 100 µM
SK-MEL-28 melanoma
  TGI: > 100 µM
UO-31 renal
  TGI: > 100 µM
HT29 colon
  TGI: > 100 µM
SK-MEL-5 melanoma
  TGI: > 100 µM
M14 melanoma
  TGI: > 100 µM
DU-145 prostate
  TGI: > 100 µM
MALME-3M melanoma
  TGI: > 100 µM
HOP-62 NSCLC
  TGI: 86.4 µM
SNB-75 CNS
  TGI: 95.8 µM
TK-10 renal
  TGI: 56.1 µM

## COC(=O)C12CCC(C(F)(F)C1=O)C2(C)C (centres undefined)
HCC-2998 colon
  TGI: > 100 µM
A498 renal
  TGI: > 100 µM
SW-620 colon
  TGI: > 100 µM
ACHN renal
  TGI: > 100 µM
SK-OV-3 ovarian
  TGI: > 100 µM
SNB-19 CNS
  TGI: > 100 µM
CAKI-1 renal
  TGI: > 100 µM
HL-60(TB) leukemia
  TGI: > 100 µM
HCT-116 colon
  TGI: > 100 µM
A549 NSCLC
  TGI: > 100 µM
HS 578T breast
  TGI: > 100 µM
NCI-H226 lung
  TGI: > 100 µM
SN12C renal
  TGI: > 100 µM
SF-295 CNS
  TGI: > 100 µM
NCI/ADR-RES ovarian
  TGI: > 100 µM
NCI-H460 lung
  TGI: > 100 µM
UACC-62 melanoma
  TGI: > 100 µM
MDA-MB-435
  TGI: > 100 µM
PC-3 prostate
  TGI: > 100 µM
T-47D breast
  TGI: > 100 µM
LOX IMVI melanoma
  TGI: > 100 µM
MDA-N
  TGI: > 100 µM
U251 CNS
  TGI: > 100 µM
SF-268 CNS
  TGI: > 100 µM
MOLT-4 leukemia
  TGI: > 100 µM
OVCAR-5 ovarian
  TGI: > 100 µM
NCI-H23 lung
  TGI: > 100 µM
SF-539 CNS
  TGI: > 100 µM
OVCAR-8 ovarian
  TGI: > 100 µM
MDA-MB-231 breast
  TGI: > 100 µM
RPMI-8226 leukemia
  TGI: > 100 µM
HCT-15 colon
  TGI: > 100 µM
SK-MEL-2 melanoma
  TGI: > 100 µM
786-0 renal
  TGI: > 100 µM
OVCAR-3 ovarian
  TGI: > 100 µM
NCI-H522 lung
  TGI: > 100 µM
BT-549 breast
  TGI: > 100 µM
OVCAR-4 ovarian
  TGI: > 100 µM
RXF 393 renal
  TGI: > 100 µM
IGROV1 ovarian
  TGI: > 100 µM
SR leukemia
  TGI: > 100 µM
UACC-257 melanoma
  TGI: > 100 µM
COLO 205 colon
  TGI: > 100 µM
KM12 colon
  TGI: > 100 µM
HOP-92 NSCLC
  TGI: > 100 µM
MCF7 breast
  TGI: > 100 µM
SK-MEL-28 melanoma
  TGI: > 100 µM
UO-31 renal
  TGI: > 100 µM
HT29 colon
  TGI: > 100 µM
SK-MEL-5 melanoma
  TGI: > 100 µM
M14 melanoma
  TGI: > 100 µM
DU-145 prostate
  TGI: > 100 µM
MALME-3M melanoma
  TGI: > 100 µM
HOP-62 NSCLC
  TGI: > 100 µM
SNB-75 CNS
  TGI: > 100 µM
TK-10 renal
  TGI: > 100 µM
